# Target: MASP-2 CCP2-SP (Homo sapiens (Human), UniProt O00187)
# Experiment: MASP-2 co-crystallization, X-ray crystallography and structure analysis (H-bonds, van der Waals contacts);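 as to Ligand-pharmacophore element distance, pharmacophore element C2: distance from averaged pharmacophore element to bound ligand; missing value means element absent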;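 as to Ligand-pharmacophore element distance, pharmacophore element C3: distance from averaged pharmacophore element to bound ligand; missing value means element absent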;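 as to Ligand-pharmacophore element distance, pharmacophore element C4: distance from averaged pharmacophore element to bound ligand; missing value means element absent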;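 as to Ligand-pharmacophore element distance, pharmacophore element C5: distance from averaged pharmacophore element to bound ligand; missing value means element absent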
# Design: van der Waals contact distance, MASP-2 HIS 483 atom CD2 / van der Waals contact distance, MASP-2 HIS 483 atom NE2 / van der Waals contact distance, SER 654 C to compound atom / van der Waals contact distance, SER 654 O to compound atom / van der Waals contact distance, TRP 655 C to compound atom / van der Waals contact distance, MASP-2 GLY 528 atom CA / van der Waals contact distance TRP 655 atom CZ3 / van der Waals contact distance TRP 655 atom N / van der Waals contact distance TRP 655 atom CE3 / van der Waals contact distance GLY 656 atom C / van der Waals contact distance GLY 656 atom CA / van der Waals contact distance GLY 656 atom O / van der Waals contact distance, MASP-2 TYR 607 atom CD1 / van der Waals contact distance, MASP-2 PRO 606 atom O / d(C3,CA1) / d(CA1,N1)2 / d(H4,O1) / d(H4,O2) / d(O1,O2) / d(CA1,O2) / d(CA6,O1) / d(CA6,O2) / d(CA1,C5) / d(O2,H3) / d(N2,C2) / d(CA5,N2) / d(N2,C4) / d(N2,C6) / d(N2,CA3) / d(N2,O3) / d(O4,H2): unit not given beside the values
# Conditions: Table A4-1; element C2
# Procedure, shortened: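 Soaked crystals of recombinant CCP2-SP (E. coli) yield the structures, phased by molecular replacement on 1Q3X pieces. Hydrophobic or nonbonded contacts can also cover atom pairs that are potential hydrogen bonds.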
# Chain of MASP-2 CCP2-SP (O00187 445-686): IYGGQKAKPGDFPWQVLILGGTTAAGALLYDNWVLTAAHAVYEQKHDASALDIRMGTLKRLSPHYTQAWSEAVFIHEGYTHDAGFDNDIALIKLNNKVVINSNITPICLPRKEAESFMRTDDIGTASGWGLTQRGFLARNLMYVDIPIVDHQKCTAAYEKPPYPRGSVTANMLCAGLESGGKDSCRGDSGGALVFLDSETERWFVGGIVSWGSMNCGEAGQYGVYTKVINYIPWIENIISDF
# Chain of MASP-2 CCP2-SP (O00187 364-432 partner): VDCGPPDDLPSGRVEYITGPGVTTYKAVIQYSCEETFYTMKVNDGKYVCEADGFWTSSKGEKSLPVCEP
row,SMILES,"Ligand-pharmacophore element distance, pharmacophore element C2"
1,C[C@H](NC(=O)[C@H]1C[C@H](Cc2ccccc2)CN1)C(=O)NCc1ccc(C(=N)N)cc1.Cl.Cl [1306_2],0
2,Cc1nc(N)ccc1CNC(=O)[C@H](C)NC(=O)[C@H]1C[C@H](Cc2cccc(Cl)c2)CN1.Cl.Cl [1328_1],0
3,Cc1nc(N)ccc1CNC(=O)[C@H](C)NC(=O)[C@H]1C[C@H](Cc2cccc(Cl)c2)CN1.Cl.Cl [1328_2],0

# Same assay, conditions: Table A4-1; element C3
row,SMILES,"Ligand-pharmacophore element distance, pharmacophore element C3"
1,C[C@H](NC(=O)[C@H]1C[C@H](Cc2ccccc2)CN1)C(=O)NCc1ccc(C(=N)N)cc1.Cl.Cl [1306_2],0
2,Cc1nc(N)ccc1CNC(=O)[C@H](C)NC(=O)[C@H]1C[C@H](Cc2cccc(Cl)c2)CN1.Cl.Cl [1328_1],0.4
3,Cc1nc(N)ccc1CNC(=O)[C@H](C)NC(=O)[C@H]1C[C@H](Cc2cccc(Cl)c2)CN1.Cl.Cl [1328_2],0.15

# Same assay, conditions: Table A4-1; element C4
row,SMILES,"Ligand-pharmacophore element distance, pharmacophore element C4"
1,C[C@H](NC(=O)[C@H]1C[C@H](Cc2ccccc2)CN1)C(=O)NCc1ccc(C(=N)N)cc1.Cl.Cl [1306_2],0
2,Cc1nc(N)ccc1CNC(=O)[C@H](C)NC(=O)[C@H]1C[C@H](Cc2cccc(Cl)c2)CN1.Cl.Cl [1328_1],0.76
3,Cc1nc(N)ccc1CNC(=O)[C@H](C)NC(=O)[C@H]1C[C@H](Cc2cccc(Cl)c2)CN1.Cl.Cl [1328_2],1.28

# Same assay, conditions: Table A4-1; element C5
row,SMILES,"Ligand-pharmacophore element distance, pharmacophore element C5"
1,C[C@H](NC(=O)[C@H]1C[C@H](Cc2ccccc2)CN1)C(=O)NCc1ccc(C(=N)N)cc1.Cl.Cl [1306_2],0
2,Cc1nc(N)ccc1CNC(=O)[C@H](C)NC(=O)[C@H]1C[C@H](Cc2cccc(Cl)c2)CN1.Cl.Cl [1328_1],0
3,Cc1nc(N)ccc1CNC(=O)[C@H](C)NC(=O)[C@H]1C[C@H](Cc2cccc(Cl)c2)CN1.Cl.Cl [1328_2],0

# Same assay, conditions: Table A4-1; element C6
row,SMILES,"Ligand-pharmacophore element distance, pharmacophore element C6"
1,C[C@H](NC(=O)[C@H]1C[C@H](Cc2ccccc2)CN1)C(=O)NCc1ccc(C(=N)N)cc1.Cl.Cl [1306_2],0
2,Cc1nc(N)ccc1CNC(=O)[C@H](C)NC(=O)[C@H]1C[C@H](Cc2cccc(Cl)c2)CN1.Cl.Cl [1328_1],0
3,Cc1nc(N)ccc1CNC(=O)[C@H](C)NC(=O)[C@H]1C[C@H](Cc2cccc(Cl)c2)CN1.Cl.Cl [1328_2],0

# Same assay, conditions: Table A4-1; element C7
row,SMILES,"Ligand-pharmacophore element distance, pharmacophore element C7"
1,C[C@H](NC(=O)[C@H]1C[C@H](Cc2ccccc2)CN1)C(=O)NCc1ccc(C(=N)N)cc1.Cl.Cl [1306_2],0
2,Cc1nc(N)ccc1CNC(=O)[C@H](C)NC(=O)[C@H]1C[C@H](Cc2cccc(Cl)c2)CN1.Cl.Cl [1328_1],0
3,Cc1nc(N)ccc1CNC(=O)[C@H](C)NC(=O)[C@H]1C[C@H](Cc2cccc(Cl)c2)CN1.Cl.Cl [1328_2],0

# Same assay, conditions: Table A4-1; element CA1
row,SMILES,"Ligand-pharmacophore element distance, pharmacophore element CA1"
1,C[C@H](NC(=O)[C@H]1C[C@H](Cc2ccccc2)CN1)C(=O)NCc1ccc(C(=N)N)cc1.Cl.Cl [1306_2],0.74
2,Cc1nc(N)ccc1CNC(=O)[C@H](C)NC(=O)[C@H]1C[C@H](Cc2cccc(Cl)c2)CN1.Cl.Cl [1328_1],0.49
3,Cc1nc(N)ccc1CNC(=O)[C@H](C)NC(=O)[C@H]1C[C@H](Cc2cccc(Cl)c2)CN1.Cl.Cl [1328_2],0.41

# Same assay, conditions: Table A4-1; element CA2
row,SMILES,"Ligand-pharmacophore element distance, pharmacophore element CA2"
1,C[C@H](NC(=O)[C@H]1C[C@H](Cc2ccccc2)CN1)C(=O)NCc1ccc(C(=N)N)cc1.Cl.Cl [1306_2],1.14
2,Cc1nc(N)ccc1CNC(=O)[C@H](C)NC(=O)[C@H]1C[C@H](Cc2cccc(Cl)c2)CN1.Cl.Cl [1328_1],0.5
3,Cc1nc(N)ccc1CNC(=O)[C@H](C)NC(=O)[C@H]1C[C@H](Cc2cccc(Cl)c2)CN1.Cl.Cl [1328_2],0.43

# Same assay, conditions: Table A4-1; element CA3
row,SMILES,"Ligand-pharmacophore element distance, pharmacophore element CA3"
1,C[C@H](NC(=O)[C@H]1C[C@H](Cc2ccccc2)CN1)C(=O)NCc1ccc(C(=N)N)cc1.Cl.Cl [1306_2],0
2,Cc1nc(N)ccc1CNC(=O)[C@H](C)NC(=O)[C@H]1C[C@H](Cc2cccc(Cl)c2)CN1.Cl.Cl [1328_1],0
3,Cc1nc(N)ccc1CNC(=O)[C@H](C)NC(=O)[C@H]1C[C@H](Cc2cccc(Cl)c2)CN1.Cl.Cl [1328_2],0

# Same assay, conditions: Table A4-1; element CA4
row,SMILES,"Ligand-pharmacophore element distance, pharmacophore element CA4"
1,C[C@H](NC(=O)[C@H]1C[C@H](Cc2ccccc2)CN1)C(=O)NCc1ccc(C(=N)N)cc1.Cl.Cl [1306_2],0
2,Cc1nc(N)ccc1CNC(=O)[C@H](C)NC(=O)[C@H]1C[C@H](Cc2cccc(Cl)c2)CN1.Cl.Cl [1328_1],0
3,Cc1nc(N)ccc1CNC(=O)[C@H](C)NC(=O)[C@H]1C[C@H](Cc2cccc(Cl)c2)CN1.Cl.Cl [1328_2],0

# Same assay, conditions: Table A4-1; element CA5
row,SMILES,"Ligand-pharmacophore element distance, pharmacophore element CA5"
1,C[C@H](NC(=O)[C@H]1C[C@H](Cc2ccccc2)CN1)C(=O)NCc1ccc(C(=N)N)cc1.Cl.Cl [1306_2],0
2,Cc1nc(N)ccc1CNC(=O)[C@H](C)NC(=O)[C@H]1C[C@H](Cc2cccc(Cl)c2)CN1.Cl.Cl [1328_1],0
3,Cc1nc(N)ccc1CNC(=O)[C@H](C)NC(=O)[C@H]1C[C@H](Cc2cccc(Cl)c2)CN1.Cl.Cl [1328_2],0

# Same assay, conditions: Table A4-1; element CA6
row,SMILES,"Ligand-pharmacophore element distance, pharmacophore element CA6"
1,C[C@H](NC(=O)[C@H]1C[C@H](Cc2ccccc2)CN1)C(=O)NCc1ccc(C(=N)N)cc1.Cl.Cl [1306_2],0
2,Cc1nc(N)ccc1CNC(=O)[C@H](C)NC(=O)[C@H]1C[C@H](Cc2cccc(Cl)c2)CN1.Cl.Cl [1328_1],0
3,Cc1nc(N)ccc1CNC(=O)[C@H](C)NC(=O)[C@H]1C[C@H](Cc2cccc(Cl)c2)CN1.Cl.Cl [1328_2],0

# Same assay, conditions: Table A5-1 pharmacophore: distance between elements, S2/S1 region
SMILES,"d(CA1,N1)","d(CA1,O1)","d(CA1,O2)","d(H4,O1)","d(H4,O2)","d(O1,O2)","d(C3,CA1)","d(CA1,N1)2"
C[C@H](NC(=O)[C@H]1C[C@H](Cc2ccccc2)CN1)C(=O)NCc1ccc(C(=N)N)cc1.Cl.Cl [1306_2],3.60,3.99,4.29,6.07,5.71,2.68,,
Cc1nc(N)ccc1CNC(=O)[C@H](C)NC(=O)[C@H]1C[C@H](Cc2cccc(Cl)c2)CN1.Cl.Cl [1328_1],,4.24,3.54,4.21,3.54,3.13,2.85,1.37
Cc1nc(N)ccc1CNC(=O)[C@H](C)NC(=O)[C@H]1C[C@H](Cc2cccc(Cl)c2)CN1.Cl.Cl [1328_2],,4.43,4.01,4.38,3.84,3.08,2.85,1.38

# Same assay, conditions: Table A5-2 pharmacophore distance, S3/S4 region
SMILES,"d(N2,CA2)","d(O2,H3)","d(O2,N2)","d(N2,C4)","d(N2,C4)4"
C[C@H](NC(=O)[C@H]1C[C@H](Cc2ccccc2)CN1)C(=O)NCc1ccc(C(=N)N)cc1.Cl.Cl [1306_2],6.15,4.46,2.71,,
Cc1nc(N)ccc1CNC(=O)[C@H](C)NC(=O)[C@H]1C[C@H](Cc2cccc(Cl)c2)CN1.Cl.Cl [1328_1],5.88,4.20,2.79,8.09,8.09
Cc1nc(N)ccc1CNC(=O)[C@H](C)NC(=O)[C@H]1C[C@H](Cc2cccc(Cl)c2)CN1.Cl.Cl [1328_2],5.92,4.54,2.75,7.87,7.87

# Same assay, conditions: Table A6-1 pharmacophore angle
SMILES,"a(CA1, O1, O2)","a(O1, O2, H4)","a(C3, CA1, O1)"
C[C@H](NC(=O)[C@H]1C[C@H](Cc2ccccc2)CN1)C(=O)NCc1ccc(C(=N)N)cc1.Cl.Cl [1306_2],114.80,153.92,
Cc1nc(N)ccc1CNC(=O)[C@H](C)NC(=O)[C@H]1C[C@H](Cc2cccc(Cl)c2)CN1.Cl.Cl [1328_1],101.20,133.34,150.62
Cc1nc(N)ccc1CNC(=O)[C@H](C)NC(=O)[C@H]1C[C@H](Cc2cccc(Cl)c2)CN1.Cl.Cl [1328_2],103.89,136.71,150.10

# Same assay, conditions: Table A6-1 pharmacophore angle; Methyl-amino-pyridine compounds
row,SMILES,"a(N1, CA1, O1) b)"
1,Cc1nc(N)ccc1CNC(=O)[C@H](C)NC(=O)[C@H]1C[C@H](Cc2cccc(Cl)c2)CN1.Cl.Cl [1328_1],175.41
2,Cc1nc(N)ccc1CNC(=O)[C@H](C)NC(=O)[C@H]1C[C@H](Cc2cccc(Cl)c2)CN1.Cl.Cl [1328_2],173.89

# Same assay, conditions: Table A6-1 pharmacophore angle; all compounds with protonatable center N1 except Methyl-amino-pyridine
row,SMILES,"A(N1, CA1, O1) a)"
1,C[C@H](NC(=O)[C@H]1C[C@H](Cc2ccccc2)CN1)C(=O)NCc1ccc(C(=N)N)cc1.Cl.Cl [1306_2],161.00

# Same assay, conditions: Table A6-2 pharmacophore angle
SMILES,"a(O1, O2, H3)","a(O1, O2, N2)","a(O2, N2, CA2)","a(O2, N2, C4)","a(O2, N2, C4) 2"
C[C@H](NC(=O)[C@H]1C[C@H](Cc2ccccc2)CN1)C(=O)NCc1ccc(C(=N)N)cc1.Cl.Cl [1306_2],151.24,153.80,158.08,,
Cc1nc(N)ccc1CNC(=O)[C@H](C)NC(=O)[C@H]1C[C@H](Cc2cccc(Cl)c2)CN1.Cl.Cl [1328_1],150.01,145.32,155.25,161.66,114.03
Cc1nc(N)ccc1CNC(=O)[C@H](C)NC(=O)[C@H]1C[C@H](Cc2cccc(Cl)c2)CN1.Cl.Cl [1328_2],149.68,139.05,154.85,160.74,109.44

# Same assay, conditions: Table A7-1; between pharmacophore elements of the bound compound
SMILES,"Pharmacophore torsion angle a(H4, O1, O2, H3)","Pharmacophore torsion angle a(H4, O1, O2, N2)","Pharmacophore torsion angle a(N1, CA1, O2, H4)","Pharmacophore torsion angle a(O1, H4, O2, CA1)","Pharmacophore torsion angle a(C3, CA1, O1, H4)","Pharmacophore torsion angle a(N1, CA1, O1, H4)"
C[C@H](NC(=O)[C@H]1C[C@H](Cc2ccccc2)CN1)C(=O)NCc1ccc(C(=N)N)cc1.Cl.Cl [1306_2],40.51,134.08,−77.87,−12.97,,
Cc1nc(N)ccc1CNC(=O)[C@H](C)NC(=O)[C@H]1C[C@H](Cc2cccc(Cl)c2)CN1.Cl.Cl [1328_1],55.62,136.65,,−88.07,30.10,20.31
Cc1nc(N)ccc1CNC(=O)[C@H](C)NC(=O)[C@H]1C[C@H](Cc2cccc(Cl)c2)CN1.Cl.Cl [1328_2],51.26,134.72,,−83.32,21.76,−4.36

# Same assay, conditions: Table A7-2; between pharmacophore elements of the bound compound
row,SMILES,"Pharmacophore torsion angle a(O1, O2, N2, CA2)"
1,C[C@H](NC(=O)[C@H]1C[C@H](Cc2ccccc2)CN1)C(=O)NCc1ccc(C(=N)N)cc1.Cl.Cl [1306_2],124.98
2,Cc1nc(N)ccc1CNC(=O)[C@H](C)NC(=O)[C@H]1C[C@H](Cc2cccc(Cl)c2)CN1.Cl.Cl [1328_1],126.19
3,Cc1nc(N)ccc1CNC(=O)[C@H](C)NC(=O)[C@H]1C[C@H](Cc2cccc(Cl)c2)CN1.Cl.Cl [1328_2],132.29
